Test results published in patent US20250346569A1, “NEW DERIVATIVES FOR TREATING TRPM3 MEDIATED DISORDERS” (Katholieke Universiteit Leuven, priority 2022, published 2025).

biological target: T1, mouse TRPM3α2 (mTRPM3) ion channel (Mus musculus, UniProt J9SQF3); experiment: Monitoring the TRPM3 ion channel driven Ca2+ uptake (Fluo-4 AM assay); assay type: cell-based; settings: TRPM3 overexpressing flip-in HEK293 cells, channel stimulated with Pregnenolone sulfate (PS) 50 μM
T1 construct: expressed in transfected cells; host or cells: flip-in HEK293
T1 sequence (J9SQF3 1-1709 isoform J9SQF3-12): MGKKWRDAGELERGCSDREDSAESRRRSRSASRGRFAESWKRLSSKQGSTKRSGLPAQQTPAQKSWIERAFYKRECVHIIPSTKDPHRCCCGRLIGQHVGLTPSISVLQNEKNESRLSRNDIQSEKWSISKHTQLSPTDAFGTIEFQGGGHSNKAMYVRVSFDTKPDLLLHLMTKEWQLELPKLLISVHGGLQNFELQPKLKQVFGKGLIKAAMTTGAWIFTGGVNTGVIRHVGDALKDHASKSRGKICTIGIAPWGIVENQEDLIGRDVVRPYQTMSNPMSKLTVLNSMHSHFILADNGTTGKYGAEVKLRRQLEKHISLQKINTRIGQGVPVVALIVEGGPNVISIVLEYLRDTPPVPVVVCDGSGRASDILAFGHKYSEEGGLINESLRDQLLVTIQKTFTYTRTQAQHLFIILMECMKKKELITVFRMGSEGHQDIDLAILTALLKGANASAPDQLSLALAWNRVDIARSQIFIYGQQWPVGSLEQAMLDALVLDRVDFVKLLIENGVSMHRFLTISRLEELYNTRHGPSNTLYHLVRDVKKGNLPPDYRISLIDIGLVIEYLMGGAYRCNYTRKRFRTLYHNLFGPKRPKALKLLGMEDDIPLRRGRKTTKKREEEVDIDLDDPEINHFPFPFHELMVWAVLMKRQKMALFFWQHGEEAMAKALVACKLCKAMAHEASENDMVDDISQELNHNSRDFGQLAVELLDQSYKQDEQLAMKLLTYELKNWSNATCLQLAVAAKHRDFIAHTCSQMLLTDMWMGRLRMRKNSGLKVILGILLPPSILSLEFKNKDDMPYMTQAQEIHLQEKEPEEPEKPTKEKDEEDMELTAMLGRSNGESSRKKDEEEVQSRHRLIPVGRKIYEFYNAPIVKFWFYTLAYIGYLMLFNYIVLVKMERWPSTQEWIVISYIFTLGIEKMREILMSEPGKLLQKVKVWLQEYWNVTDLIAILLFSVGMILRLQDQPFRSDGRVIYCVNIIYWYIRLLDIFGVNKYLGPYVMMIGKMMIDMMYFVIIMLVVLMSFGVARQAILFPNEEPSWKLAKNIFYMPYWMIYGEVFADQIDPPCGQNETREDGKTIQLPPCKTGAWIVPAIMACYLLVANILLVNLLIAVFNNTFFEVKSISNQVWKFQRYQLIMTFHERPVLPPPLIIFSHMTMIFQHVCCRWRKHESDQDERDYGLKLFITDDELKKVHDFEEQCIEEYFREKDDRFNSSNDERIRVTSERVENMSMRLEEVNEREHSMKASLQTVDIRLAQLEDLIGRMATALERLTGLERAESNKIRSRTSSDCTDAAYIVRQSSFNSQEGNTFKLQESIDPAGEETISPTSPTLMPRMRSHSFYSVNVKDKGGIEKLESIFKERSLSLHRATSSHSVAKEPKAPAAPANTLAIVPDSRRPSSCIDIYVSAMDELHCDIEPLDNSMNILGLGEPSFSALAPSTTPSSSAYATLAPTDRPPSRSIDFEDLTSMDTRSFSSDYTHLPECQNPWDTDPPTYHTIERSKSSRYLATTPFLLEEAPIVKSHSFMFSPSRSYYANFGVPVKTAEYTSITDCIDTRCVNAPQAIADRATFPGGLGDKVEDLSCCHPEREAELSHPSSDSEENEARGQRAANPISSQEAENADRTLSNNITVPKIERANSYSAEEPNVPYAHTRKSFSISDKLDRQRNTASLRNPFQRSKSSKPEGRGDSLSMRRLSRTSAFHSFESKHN
Procedure: Monitoring the TRPM3 ion channel driven Ca^2+ uptake.
In order to monitor the inhibition of the mouse TRPM3α2 (mTRPM3) ion channel by the compounds of the invention, a cellular system making use of an mTRPM3alpha2 or hTRPM3 overexpressing cell line (flip-in HEK293) was used. The TRPM3 channel was stimulated/opened with Pregnenolone sulfate (PS) (50 μM) which results in Ca^2+ influx.
For mTRPM3, the intracellular Ca^2+ was measured with a Calcium responsive dye, Fluor-4 AM ester (Invitrogen). Cells were cultured until a confluence of 80-90%, washed with Versene (Invitrogen) and detached from the surface by a short incubation with 0.05% Trypsin (Invitrogen). The trypsination process was stopped by the addition of complete cell culture medium (DMEM, glutamax,10% FCS,NEAA,Pen-Strep). Cells were collected and resuspended in Krebs buffer without Calcium at RT.
Prior the cell seeding (±2000 cells/well into a black, 384 well plate (Greiner)) the diluted compound was added in the assay plate, together with the PS dissolved in Krebs buffer containing Calcium. […] Directly after cell addition the plates were read on an Envision fluorescence reader (Perkin Elmer) by an Excitation of 485 nm and emission at 535 nm.
Channel inhibition was calculated compared to a non-PS stimulated control versus a condition stimulated with PS (50 μM) with vehicle. The ability of the compounds of the invention to inhibit this activity was determined as: Percentage inhibition=[1−((RFU determined for sample with test compound present−RFU determined for sample with positive control inhibitor) divided by (RFU determined in the presence of vehicle−RFU determined for sample with positive control inhibitor))]*100.
The activities of the Example compounds tested are depicted in the table below. The activity ranges A, B and C refer to IC50 values in the Fluo-4 AM assay as follows: “A”: IC50<1 μM; “B”: 1 μM≤IC50≤20 μM and “C”: IC50>20 μM

Row | IC50 [nM] | Compound
1 | 1000 to 20000 | Cc1sc2ccc(OCc3ccccc3)cc2c1C(=O)NCC(C)(C)O [Cpd 100, 5-(benzyloxy)-N-(2-hydroxy-2-methylpropyl)-2-methyl-1-benzothiophene-3-carboxamide]
2 | 1000 to 20000 | Cc1sc2ccc(OCc3cccnc3C(F)(F)F)cc2c1C(=O)NC1(CO)CCOCC1 [Cpd 083, N-[4-(hydroxymethyl)oxan-4-yl]-2-methyl-5-{[2-(trifluoromethyl)pyridin-3-yl]methoxy}-1-benzothiophene-3-carboxamide]
3 | < 1000 | Cc1sc2ccc(OCc3cccnc3C(F)(F)F)cc2c1C(=O)NC(C)(C)C(N)=O [Cpd 065, 2-methyl-2-[(2-methyl-5-{[2-(trifluoromethyl)pyridin-3-yl]methoxy}-1-benzothiophen-3-yl)formamido]propanamide]
4 | < 1000 | Cc1sc2ccc(OCc3cccnc3C(F)(F)F)cc2c1C(=O)N[C@@H](CO)C(N)=O [Cpd 053, (2S)-3-hydroxy-2-[(2-methyl-5-{[2-(trifluoromethyl)pyridin-3-yl]methoxy}-1-benzothiophen-3-yl)formamido]propanamide]
5 | < 1000 | Cc1sc2ccc(OCc3ccccc3)cc2c1C(=O)O [Cpd 108, 5-(benzyloxy)-2-methyl-1-benzothiophene-3-carboxylic acid]
6 | > 20000 | Cc1sc2ccc(OCc3cccnc3C(F)(F)F)cc2c1C(=O)NC1CC(F)(F)C1 [Cpd 090, N-(3,3-difluorocyclobutyl)-2-methyl-5-{[2-(trifluoromethyl)pyridin-3-yl]methoxy}-1-benzothiophene-3-carboxamide]
7 | < 1000 | Cc1ncc(COc2ccc3sc(C)c(C(=O)NC(C)(CO)C(N)=O)c3c2)s1 (single isomer, unassigned) [Cpd 019 - En1, 3-hydroxy-2-methyl-2-({2-methyl-5-[(2-methyl-1,3-thiazol-5-yl)methoxy]-1-benzothiophen-3-yl}formamido)propanamide]
8 | < 1000 | Cc1ncsc1COc1ccc2sc(C)c(C(=O)NC3(CO)COC3)c2c1 [Cpd 037, N-[3-(hydroxymethyl)oxetan-3-yl]-2-methyl-5-[(4-methyl-1,3-thiazol-5-yl)methoxy]-1-benzothiophene-3-carboxamide]
9 | < 1000 | Cc1ncsc1COc1ccc2sc(C)c(C(=O)Nc3ccn(C)n3)c2c1 [Cpd 040, 2-methyl-5-[(4-methyl-1,3-thiazol-5-yl)methoxy]-N-(1-methyl-1H-pyrazol-3-yl)-1-benzothiophene-3-carboxamide]
10 | 1000 to 20000 | CC(C)(CNC(=O)c1c(C(F)F)sc2ccc(OCc3ccccc3)cc12)N1CCOCC1 [Cpd 013, 5-(benzyloxy)-2-(difluoromethyl)-N-[2-methyl-2-(morpholin-4-yl)propyl]-1-benzothiophene-3-carboxamide]
11 | < 1000 | Cc1sc2ccc(OCc3cccnc3O)cc2c1C(=O)NC1(CO)CCOCC1 [Cpd 084, N-[4-(hydroxymethyl)oxan-4-yl]-5-[(2-hydroxypyridin-3-yl)methoxy]-2-methyl-1-benzothiophene-3-carboxamide]
12 | < 1000 | Cc1ncc(COc2ccc3sc(C)c(C(=O)N[C@H](C)C(N)=O)c3c2)s1 [Cpd 005, (2R)-2-({2-methyl-5-[(2-methyl-1,3-thiazol-5-yl)methoxy]-1-benzothiophen-3-yl}formamido)propanamide]
13 | > 20000 | O=C1CCC(CNC(=O)c2c(C(F)F)sc3ccc(OCc4ccccc4)cc23)N1 (stereo not shown) [Cpd 148, 5-(benzyloxy)-2-(difluoromethyl)-N-[(5-oxopyrrolidin-2-yl)methyl]-1-benzothiophene-3-carboxamide]

The next lines start with the compound.

Row | Compound | IC50 [nM]
14 | Cc1sc2ccc(OCc3cccnc3C(F)(F)F)cc2c1C(=O)O [Cpd 109, 2-methyl-5-{[2-(trifluoromethyl)pyridin-3-yl]methoxy}-1-benzothiophene-3-carboxylic acid] | < 1000
15 | Cc1sc2ccc(OCC3CC3)cc2c1C(=O)NC(C)(CO)CO [Cpd 069, 5-(cyclopropylmethoxy)-N-(1,3-dihydroxy-2-methylpropan-2-yl)-2-methyl-1-benzothiophene-3-carboxamide] | < 1000
16 | Cc1ncsc1COc1ccc2sc(C)c(C(=O)NCCN(C)C)c2c1 [Cpd 118, N-[2-(dimethylamino)ethyl]-2-methyl-5-[(4-methyl-1,3-thiazol-5-yl)methoxy]-1-benzothiophene-3-carboxamide] | < 1000
17 | O=C(NCCN1CCOC1=O)c1c(C(F)F)sc2ccc(OCc3ccccc3)cc12 [Cpd 149, 5-(benzyloxy)-2-(difluoromethyl)-N-[2-(2-oxo-1,3-oxazolidin-3-yl)ethyl]-1-benzothiophene-3-carboxamide] | > 20000
18 | Cc1sc2ccc(OCc3ccccc3)cc2c1C(=O)N[C@H]1CCNC1=O [Cpd 060, 5-(benzyloxy)-2-methyl-N-[(3S)-2-oxopyrrolidin-3-yl]-1-benzothiophene-3-carboxamide] | < 1000
19 | Cc1sc2ccc(OCc3ccccc3F)cc2c1C(=O)N[C@H](C)C(N)=O [Cpd 002, (2R)-2-({5-[(2-fluorophenyl)methoxy]-2-methyl-1-benzothiophen-3-yl}formamido)propanamide] | < 1000
20 | O=C(NC1CCNC1=O)c1c(C(F)F)sc2ccc(OCc3ccccc3)cc12 (stereo not shown) [Cpd 146, 5-(benzyloxy)-2-(difluoromethyl)-N-(2-oxopyrrolidin-3-yl)-1-benzothiophene-3-carboxamide] | < 1000
21 | CNC(=O)c1c(C(F)F)sc2ccc(OCc3ccccc3)cc12 [Cpd 135, 5-(benzyloxy)-2-(difluoromethyl)-N-methyl-1-benzothiophene-3-carboxamide] | > 20000
22 | Cc1sc2ccc(OCc3ccccc3F)cc2c1C(=O)NC1(CO)COC1 [Cpd 085, 5-[(2-fluorophenyl)methoxy]-N-[3-(hydroxymethyl)oxetan-3-yl]-2-methyl-1-benzothiophene-3-carboxamide] | < 1000
23 | Cc1sc2ccc(OCc3ccccc3F)cc2c1C(=O)NC1(CO)CCC1 [Cpd 077, 5-[(2-fluorophenyl)methoxy]-N-[1-(hydroxymethyl)cyclobutyl]-2-methyl-1-benzothiophene-3-carboxamide] | < 1000
24 | Cc1sc2ccc(OCc3cccnc3C(F)(F)F)cc2c1C(=O)NC1CCNC1=O (stereo not shown) [Cpd 094, 2-methyl-N-(2-oxopyrrolidin-3-yl)-5-{[2-(trifluoromethyl)pyridin-3-yl]methoxy}-1-benzothiophene-3-carboxamide] | < 1000
25 | Cc1ncsc1COc1ccc2sc(C)c(C(=O)NCC(C)(C)N3CCOCC3)c2c1 [Cpd 044, 2-methyl-5-[(4-methyl-1,3-thiazol-5-yl)methoxy]-N-[2-methyl-2-(morpholin-4-yl)propyl]-1-benzothiophene-3-carboxamide] | < 1000
26 | Cc1sc2ccc(OCc3ccccc3)cc2c1C(=O)NC1CCN(C)CC1 [Cpd 127, 5-(benzyloxy)-2-methyl-N-(1-methylpiperidin-4-yl)-1-benzothiophene-3-carboxamide] | 1000 to 20000
27 | COc1ncccc1COc1ccc2sc(C)c(C(=O)NC(C)(C)C(N)=O)c2c1 [Cpd 141, 2-({5-[(2-methoxypyridin-3-yl)methoxy]-2-methyl-1-benzothiophen-3-yl}formamido)-2-methylpropanamide] | < 1000
28 | Cc1ncsc1COc1ccc2sc(C)c(C(=O)N[C@H](CO)C(N)=O)c2c1 [Cpd 029, (2R)-3-hydroxy-2-({2-methyl-5-[(4-methyl-1,3-thiazol-5-yl)methoxy]-1-benzothiophen-3-yl}formamido)propanamide] | < 1000
